Read-outs that look alike come from different tables or passages of the source.
How the values were obtained:
[1] = test system: 7 human osteosarcoma lines; assay: MTS cell proliferation assay, 48 and 72 h (first Example 2); assay type: cell-based; conditions: MTS test
Protocol: HOS, 143B, MG-63, U2OS and IOR/OS18 cell lines were seeded at 5,000 cells per well, Saos-2, Saos-2-B and IOR/OS14 cell lines were seeded at 10,000 cells per well in a 96-well plate containing a final volume of 100 μl/well and left to settle overnight in DMEM with 10% fetal calf serum.
The cells were treated with different drugs (PPARγ agonists troglitazone (TGZ) or rosiglitazone (RGZ), or PPARγ antagonist T0070907, dissolved in DMSO) at concentrations ranging from 0 μmol/l to 100 μmol/L. The control (untreated cells) get the same volume of DMSO when the cells are treated (10 μl per 1 ml). Cell viability was determined 48 and 72 hours after exposure. Old medium was removed and a solution with MTS/new medium (20 μl of MTS solution−final concentration 0.33 mg/ml) (CellTiter 96 Aqueous One Solution Cell Proliferation Assay; Promega Corporation, Charbonnieres, France) was added. A set of wells were prepared only with MTS/new medium for background subtraction at the same time. An incubation from 1 to 7 hours at 37° C. (cell line metabolism dependent) was performed follow by a colorimetric measurement at 490 nm in an automatic plate reader (Elxb808; Fisher Bioblock Scientific SAS, Illkirch, France).

[2] = test system: 8 osteosarcoma parental cell lines; assay: In vitro cell viability (MTS assay), 72 h; assay type: cell-based, human
Protocol: (§1) Parental HOS, 143B, MG-63, IOR/OS18, resistant derived HOS R/MTX and derived PPARγ shRNA or overexpressing PPARγ cell lines were seeded at 5000 cells/well, parental, Saos2, Saos-2B, IOR/OS14, resistant derived HOS R/DOXO and derived PPARγshRNA or overexpressing PPARγ lines were seeded at 10,000 cells/well in a 96-well plate in DMEM supplemented with 10% FBS for both assays.
(§2) The day after seeding, cells were incubated in the presence of a range of drug concentrations for 72 h (from 0 to 100 μmol/L for DOXO, MAF; 0 to 500 μmol/L for MTX, T0070907, Rosiglitazone (RGZ) and Troglitazone (TGZ)). Cell viability was evaluated using the CellTiter 96 Aqueous One Solution Cell Proliferation Assay (MTS assay) (Promega, Charbonnieres, France), according to the manufacturer instructions. The half-maximal inhibitory concentration (IC50) was determined using the GraphPad Prism5 software (Graphpad Software Inc., California, USA).

HOS cells [3] = assay: In vitro cell viability (MTS assay), HOS; assay type: cell-based, human
Protocol: as §1, §2

HOS cells [4] = assay: RNA sequencing of treated HOS cells; assay type: cell-based, human; conditions: T0070907 at 25 μM for 24 h
MAP-217 PT PDX model = assay: Osteosarcoma orthotopic (paratibial) PDX model MAP-217; assay type: in vivo, NSG mice; conditions: IP 10 mg/kg/injection daily
Excerpt: Experiments were validated by the CEEA26, Ethic committee (approval number APAFIS #27183-2020091414229028 v3) and carried out under conditions established by the European Community (Directive 2010/63/UE). Animals were purchased at Gustave Roussy (Villejuif, France) and maintained in the respective animal facilities following standard animal regulation, health and care, and ethical controls. Osteosarcoma PDXs were established from relapsed patients by transplantation in immunocompromised NSG mice and considered as established when tumor growth was sustained after at least two in vivo passages. […] Clinical status, tumor uptake and tumor growth will be evaluated one to 3 times a week. Paratibial tumor was detected by palpation and tumor gross appearance (caliper measurements). […] Mice were then anesthetized and bone structure alterations were analyzed by CTscan imaging. […]
Groups of 8 animals bearing the same OTS orthotopic PDX model were treated from day 14 after tumor implantation with intraperitoneal (IP) injection (volume of 10 m/kg) every day with either T0070907 (10 mg/Kg/injection) or with vehicle (saline, control group). […] Clinical status, tumor uptake and tumor growth were evaluated each two days. Paratibial tumors were detected by palpation, tumor gross apparition (caliper measurements). […]

IC50 ([1]; read-out: IC50 (cell viability), range over cell lines): 9 to 18 µM | IC50 ([1]; read-out: median IC50 (cell viability)): 20 µM
Compound: O=C(Nc1ccncc1)c1cc([N+](=O)[O-])ccc1Cl [T0070907]
IC50 ([2]; 8 osteosarcoma parental cell lines, read-out: IC50, range over cell lines): 9.3 to 37.4 µM | IC50 ([2]; all 8 osteosarcoma parental cell lines, read-out: Median IC50): 20 µM | IC50 (HOS cells [3]): 25 µM | RNA sequencing: transcription programs induced (HOS cells [4]): induction of pro-apoptotic and osteoblastic differentiation programs | delay to reach 2.5 time the initial leg volume, higher compared to control (MAP-217 PT PDX model): 20% | lung metastases (MAP-217 PT PDX model; IHC human Ki67 at sacrifice): decreased lung metastases in number and size
